Laboratory results from patent publication US8134015B2, “Compound inhibiting in vivo phosphorous transport and medicine containing the same” (Kyowa Hakko Kirin Co., Ltd., priority 2003, dated 2012).

biological target: T1, rat NaPi-2b (Rattus norvegicus, UniProt Q9JJ09); test: Sodium-dependent phosphate uptake of Xenopus oocytes which expressed NaPi-2b (32P); format: cell-based; conditions: Xenopus oocytes expressing rat NaPi-2b, 32P radioactive phosphorus; read-out: IC50 (phosphate uptake inhibitory activity)
T1 construct: expressed in transfected cells; host or cells: Xenopus oocytes injected with cRNA
T1 sequence (Q9JJ09 1-695): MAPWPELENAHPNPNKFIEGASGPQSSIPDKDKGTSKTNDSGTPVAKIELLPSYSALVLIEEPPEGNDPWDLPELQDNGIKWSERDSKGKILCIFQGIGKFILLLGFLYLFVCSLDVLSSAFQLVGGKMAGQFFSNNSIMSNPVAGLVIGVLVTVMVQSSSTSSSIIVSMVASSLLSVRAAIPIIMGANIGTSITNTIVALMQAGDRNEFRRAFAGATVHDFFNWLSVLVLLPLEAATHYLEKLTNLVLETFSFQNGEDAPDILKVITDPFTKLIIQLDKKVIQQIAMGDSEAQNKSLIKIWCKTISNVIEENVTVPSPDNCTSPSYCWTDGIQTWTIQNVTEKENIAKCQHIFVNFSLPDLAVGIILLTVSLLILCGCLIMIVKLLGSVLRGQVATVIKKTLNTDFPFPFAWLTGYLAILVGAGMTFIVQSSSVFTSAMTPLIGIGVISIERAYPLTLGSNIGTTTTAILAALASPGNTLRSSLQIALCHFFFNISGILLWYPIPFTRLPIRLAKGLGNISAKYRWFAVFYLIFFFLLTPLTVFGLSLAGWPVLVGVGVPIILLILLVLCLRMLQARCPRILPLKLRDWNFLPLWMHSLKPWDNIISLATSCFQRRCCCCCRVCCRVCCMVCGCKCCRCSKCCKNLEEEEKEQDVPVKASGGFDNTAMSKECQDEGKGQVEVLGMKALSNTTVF
Summary of the method: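 Rat NaPi-2b cloned from small-intestine cDNA; cRNA injected into Xenopus oocytes, expression for 2 days. Phosphate uptake inhibition measured with 32P; percent inhibition at 300 μM and 100 μM read from the same inhibition curve.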

Compound	IC50
Cc1ccc(/C=N/NC(=O)c2cc(OCCCN3CCCCC3)ccc2NC(=O)c2cccc(CSCCO)c2)cc1C [Compound 1041, N-[2-(3,4-Dimethyl-benzylidene-hydrazinocarbonyl)-4-(3-piperidin-1-yl-propoxy)-phenyl]-3-(2-hydroxy-ethylsulfanylmethyl)-benzamide]	10200 nM
Cc1ccc(/C=N/NC(=O)c2cc(OCCN3CCCCC3)ccc2NC(=O)c2cccc(CSCCO)c2)cc1 [Compound 1042, 3-(2-Hydroxy-ethylsulfanylmethyl)-N-[2-(4-methyl-benzylidene-hydrazinocarbonyl)-4-(2-piperidin-1-yl-ethoxy)-phenyl]-benzamide]	14700 nM
Cc1ccc(/C=N/NC(=O)c2cc(OCCN3CCCCC3)ccc2NC(=O)c2cccc(CSCCO)c2)cc1C [Compound 1043, N-[2-(3,4-Dimethyl-benzylidene-hydrazinocarbonyl)-4-(2-piperidin-1-yl-ethoxy)-phenyl]-3-(2-hydroxy-ethylsulfanylmethyl)-benzamide]	8260 nM
O=C(Nc1ccc(OCCN2CCCCC2)cc1C(=O)N/N=C/c1ccc(Cl)c(C(F)(F)F)c1)c1cccc(CSCCO)c1 [Compound 1044, N-[2-(4-Chloro-3-trifluoromethyl-benzylidene-hydrazinocarbonyl)-4-(2-piperidin-1-yl-ethoxy)-phenyl]-3-(2-hydroxy-ethylsulfanylmethyl)-benzamide]	2130 nM
COc1ccc(/C=N/NC(=O)c2cc(OCCN3CCCCC3)ccc2NC(=O)c2cccc(CSCCO)c2)cc1 [Compound 1045, 3-(2-Hydroxy-ethylsulfanylmethyl)-N-[2-(4-methoxy-benzylidene-hydrazinocarbonyl)-4-(2-piperidin-1-yl-ethoxy)-phenyl]-benzamide]	13100 nM
CCN(CC)CCN(C)Cc1cccc(C(=O)Nc2ccc(OCC3CCCCC3)cc2C(=O)N/N=C/c2cccc(F)c2)c1 [Compound 1046, N-[4-Cyclohexylmethoxy-2-(3-fluoro-benzylidene-hydrazinocarbonyl)-phenyl]-3-{[(2-diethylamino-ethyl)-methyl-amino]-methyl}-benzamide]	< 1000 nM
CCN(CC)CCN(C)Cc1cccc(C(=O)Nc2ccc(OCC3CCCCC3)cc2C(=O)N/N=C/c2ccc(C)cc2)c1 [Compound 1047, N-[4-Cyclohexylmethoxy-2-(4-methyl-benzylidene-hydrazinocarbonyl)-phenyl]-3-{[(2-diethylamino-ethyl)-methyl-amino]-methyl}-benzamide]	< 1000 nM
CCN(CC)CCN(C)Cc1cccc(C(=O)Nc2ccc(OCC3CCCCC3)cc2C(=O)N/N=C/c2ccc(C)c(C)c2)c1 [Compound 1048, N-[4-Cyclohexylmethoxy-2-(3,4-dimethyl-benzylidene-hydrazinocarbonyl)-phenyl]-3-{[(2-diethylamino-ethyl)-methyl-amino]-methyl}-benzamide]	< 1000 nM
CCN(CC)CCN(C)Cc1cccc(C(=O)Nc2ccc(OCC3CCCCC3)cc2C(=O)N/N=C/c2ccc(Cl)c(C(F)(F)F)c2)c1 [Compound 1049, N-[2-(4-Chloro-3-trifluoromethyl-benzylidene-hydrazinocarbonyl)-4-cyclohexylmethoxy-phenyl]-3-{[(2-diethylamino-ethyl)-methyl-amino]-methyl}-benzamide]	< 1000 nM
CCN(CC)CCN(C)Cc1cccc(C(=O)Nc2ccc(OCC3CCCCC3)cc2C(=O)N/N=C/c2ccc(OC)cc2)c1 [Compound 1050, N-[4-Cyclohexylmethoxy-2-(4-methoxy-benzylidene-hydrazinocarbonyl)-phenyl]-3-{[(2-diethylamino-ethyl)-methyl-amino]-methyl}-benzamide]	1420 nM
O=C(Nc1ccc(OCCCCF)cc1C(=O)N/N=C/c1cccc(F)c1)c1cccc(CSCCO)c1 [Compound 1051, N-[2-(3-Fluoro-benzylidene-hydrazinocarbonyl)-4-(4-fluoro-butoxy)-phenyl]-3-(2-hydroxy-ethylsulfanylmethyl)-benzamide]	1160 nM
Cc1ccc(/C=N/NC(=O)c2cc(OCCCCF)ccc2NC(=O)c2cccc(CSCCO)c2)cc1 [Compound 1052, N-[4-(4-Fluoro-butoxy)-2-(4-methyl-benzylidene-hydrazinocarbonyl)-phenyl]-3-(2-hydroxy-ethylsulfanylmethyl)-benzamide]	1330 nM
Cc1ccc(/C=N/NC(=O)c2cc(OCCCCF)ccc2NC(=O)c2cccc(CSCCO)c2)cc1C [Compound 1053, N-[2-(3,4-Dimethyl-benzylidene-hydrazinocarbonyl)-4-(4-fluoro-butoxy)-phenyl]-3-(2-hydroxy-ethylsulfanylmethyl)-benzamide]	< 1000 nM
O=C(Nc1ccc(OCCCCF)cc1C(=O)N/N=C/c1ccc(Cl)c(C(F)(F)F)c1)c1cccc(CSCCO)c1 [Compound 1054, N-[2-(4-Chloro-3-trifluoromethyl-benzylidene-hydrazinocarbonyl)-4-(4-fluoro-butoxy)-phenyl]-3-(2-hydroxy-ethylsulfanylmethyl)-benzamide]	< 1000 nM
COc1ccc(/C=N/NC(=O)c2cc(OCCCCF)ccc2NC(=O)c2cccc(CSCCO)c2)cc1 [Compound 1055, N-[4-(4-Fluoro-butoxy)-2-(4-methoxy-benzylidene-hydrazinocarbonyl)-phenyl]-3-(2-hydroxy-ethylsulfanylmethyl)-benzamide]	1960 nM
CCN(CC)CCN(CCN(CC)CC)Cc1cccc(C(=O)Nc2sc3c(c2C(=O)N/N=C/c2ccc(C)cc2)CCCC3)c1 [Compound 1056, 3-{[Bis-(2-diethylamino-ethyl)-amino]-methyl}-N-[3-(4-methyl-benzylidene-hydrazinocarbonyl)-4,5,6,7-tetrahydro-benzo[b]thiophen-2-yl]-benzamide]	1880 nM
CCN(CC)CCN(C)Cc1cccc(C(=O)Nc2ccc(OCCCCF)cc2C(=O)N/N=C/c2cccc(F)c2)c1 [Compound 1057, 3-{[(2-Diethylamino-ethyl)-methyl-amino]-methyl}-N-[2-(3-fluoro-benzylidene-hydrazinocarbonyl)-4-(4-fluoro-butoxy)-phenyl]-benzamide]	1260 nM
CCN(CC)CCN(C)Cc1cccc(C(=O)Nc2ccc(OCCCCF)cc2C(=O)N/N=C/c2ccc(C)cc2)c1 [Compound 1058, 3-{[(2-Diethylamino-ethyl)-methyl-amino]-methyl}-N-[4-(4-fluoro-butoxy)-2-(4-methyl-benzylidene-hydrazinocarbonyl)-phenyl]-benzamide]	1070 nM
CCN(CC)CCN(C)Cc1cccc(C(=O)Nc2ccc(OCCCCF)cc2C(=O)N/N=C/c2ccc(C)c(C)c2)c1 [Compound 1059, 3-{[(2-Diethylamino-ethyl)-methyl-amino]-methyl}-N-[2-(3,4-dimethyl-benzylidene-hydrazinocarbonyl)-4-(4-fluoro-butoxy)-phenyl]-benzamide]	430 nM
CCN(CC)CCN(C)Cc1cccc(C(=O)Nc2ccc(OCCCCF)cc2C(=O)N/N=C/c2ccc(Cl)c(C(F)(F)F)c2)c1 [Compound 1060, N-[2-(4-Chloro-3-trifluoromethyl-benzylidene-hydrazinocarbonyl)-4-(4-fluoro-butoxy)-phenyl]-3-{[(2-diethylamino-ethyl)-methyl-amino]-methyl}-benzamide]	440 nM
CCN(CC)CCN(C)Cc1cccc(C(=O)Nc2ccc(OCCCCF)cc2C(=O)N/N=C/c2ccc(OC)cc2)c1 [Compound 1061, 3-{[(2-Diethylamino-ethyl)-methyl-amino]-methyl}-N-[4-(4-fluoro-butoxy)-2-(4-methoxy-benzylidene-hydrazinocarbonyl)-phenyl]-benzamide]	1990 nM
O=C(Nc1ccc(N2CCC(O)CC2)cc1C(=O)N/N=C/c1ccc(Cl)c(C(F)(F)F)c1)c1cccc(CSCCO)c1 [Compound 1062, N-[2-(4-Chloro-3-trifluoromethyl-benzylidene-hydrazinocarbonyl)-4-(4-hydroxy-piperidin-1-yl)-phenyl]-3-(2-hydroxy-ethylsulfanylmethyl)-benzamide]	6760 nM
Cc1ccc(/C=N/NC(=O)c2cc(N3CCOCC3)ccc2NC(=O)c2cccc(CSCCO)c2)cc1C [Compound 1064, N-[2-(3,4-Dimethyl-benzylidene-hydrazinocarbonyl)-4-morpholin-4-yl-phenyl]-3-(2-hydroxy-ethylsulfanylmethyl)-benzamide]	< 1000 nM
O=C(Nc1ccc(N2CCOCC2)cc1C(=O)N/N=C/c1ccc(Cl)c(C(F)(F)F)c1)c1cccc(CSCCO)c1 [Compound 1065, N-[2-(4-Chloro-3-trifluoromethyl-benzylidene-hydrazinocarbonyl)-4-morpholin-4-yl-phenyl]-3-(2-hydroxy-ethylsulfanylmethyl)-benzamide]	1210 nM

same assay, conditions: phosphate uptake, oocytes expressing rat NaPi-2b; 100 μM, determined from inhibition curve

Compound	inhibition at 100 µM
O=C(Nc1ccc(N2CCC(CO)CC2)cc1C(=O)N/N=C/c1ccc(Cl)c(C(F)(F)F)c1)c1cccc(CSCCO)c1 [Compound 1063, N-[2-(4-Chloro-3-trifluoromethyl-benzylidene-hydrazinocarbonyl)-4-(4-hydroxymethyl-piperidin-1-yl)-phenyl]-3-(2-hydroxy-ethylsulfanylmethyl)-benzamide]	63.9%
